Drawing on US10253007B2, “Taxanes compounds, preparation method therefor, and uses thereof” (Jiangsu Tasly Diyi Pharmaceutical Co., Ltd., priority 2013, dated 2019), this text covers Papp A→B, recovery and inhibition for 7 molecules.

The structures appear in SMILES notation.

Data set [1] in a line: Caco-2 cell monolayer membrane transport assay. The conditions noted are these: human, A-B; for Papp A→B: Caco-2, Papp A-B; for recovery: Caco-2, Recovery rate in mass. Background: Caco-2 cells form a polarised layer with tight junctions and transporters.
Text: Caco-2 Cell Monolayer Membrane Transport Assay
Human-derived colorectal adenocarcinoma cell line Caco-2 cell monolayer model was used to study the bidirectional transport of the target compounds from the apical (AP) side to the basolateral (BL) side and from BL side to AP side. HPLC was used for quantitative analysis to calculate transport parameters, apparent permeability coefficient (Papp) and the efflux ratio.
Data set [2] relates to A375 melanoma. The data set can be described thus: MTT assay, proliferation inhibition. The format is cell-based. Conditions: Homo sapiens, A-375, read-out: Proliferation inhibition rate. From the text:
(§1) 1. Cytotoxicity Assay Using Human Tumor Cell Lines
(§2) Paclitaxel was used as the positive drug.
Background: Tetrazolium dyes change colour on reduction, which living cells bring about.

The test system of data set [3] is B16 melanoma. The data set can be described thus: MTT assay, proliferation inhibition. The format is cell-based. Conditions: read-out: Proliferation inhibition rate.
Text: as §1, §2

Data set [4] relates to HT29 colon cancer. Put plainly: MTT assay, proliferation inhibition. The format is cell-based. Conditions: Homo sapiens, HT-29, read-out: Proliferation inhibition rate.
Text: as §1, §2

In data set [5] the test system is K562 leukemia. Put plainly: MTT assay, proliferation inhibition. The format is cell-based. Conditions: Homo sapiens, read-out: Proliferation inhibition rate.
Text: as §1, §2

In data set [6] the test system is DU145 prostate cancer. Put plainly: MTT assay, proliferation inhibition. The format is cell-based. Conditions: Homo sapiens, DU-145, read-out: Proliferation inhibition rate.
Text: as §1, §2

Data set [7] has as its system HCT 116 colon cancer. Put plainly: MTT assay, proliferation inhibition. The format is cell-based. Conditions: Homo sapiens, read-out: Proliferation inhibition rate.
Text: as §1, §2

The subject of data set [8] is A2780 ovarian cancer. Put plainly: MTT assay, proliferation inhibition. The data set is classed as cell-based. Conditions: Homo sapiens, read-out: Proliferation inhibition rate.
Text: as §1, §2

Data set [9] deals with LNCaP prostate cancer. Put plainly: MTT assay, proliferation inhibition. The format is cell-based. Conditions: Homo sapiens, read-out: Proliferation inhibition rate.
Text: as §1, §2

Data set [10] concerns MDA-MB-436 breast cancer. Put plainly: MTT assay, proliferation inhibition. The format is cell-based. Conditions: Homo sapiens, read-out: Proliferation inhibition rate.
Text: as §1, §2

In data set [11] the test system is MCF-7 breast cancer. Put plainly: MTT assay, proliferation inhibition. The data set is classed as cell-based. Conditions: Homo sapiens, MCF7, read-out: Proliferation inhibition rate.
Text: as §1, §2

Data set [12] concerns A549 non-small cell lung cancer. The data set can be described thus: MTT assay, proliferation inhibition. Conditions: Homo sapiens, read-out: Proliferation inhibition rate. The data set is classed as cell-based.
Text: as §1, §2

Data set [13] concerns HL60 leukemia. Put plainly: MTT assay, proliferation inhibition. The conditions noted are these: Homo sapiens, HL-60, read-out: Proliferation inhibition rate. The format is cell-based.
Text: as §1, §2

For data set [14], the system named is HeLa cervical cancer. Put plainly: MTT assay, proliferation inhibition. Conditions: Homo sapiens, read-out: Proliferation inhibition rate. The data set is classed as cell-based.
Text: as §1, §2

The test system of data set [15] is BGC-823 gastric cancer. The data set can be described thus: MTT assay, proliferation inhibition. The data set is classed as cell-based. Conditions: Homo sapiens, read-out: Proliferation inhibition rate.
Text: as §1, §2

Data set [16] concerns NCI-H460 non-small cell lung cancer. Put plainly: MTT assay, proliferation inhibition. The format is cell-based. The conditions noted are these: Homo sapiens, read-out: Proliferation inhibition rate.
Text: as §1, §2

Data set [17] can be described thus: MTT assay, proliferation inhibition. The format is cell-based. The conditions noted are these: Homo sapiens, LN-18 gastric cancer, read-out: Proliferation inhibition rate.
Text: as §1, §2

The mark [18] stands for this setting: Mean, Caco-2, mean of two samples.

A word on the Papp A→B: it is the apparent permeability from the apical to the basolateral side of a cell layer. A higher Papp A→B goes with ready permeation. Take `CO[C@H]1C[C@H]2OC[C@@]2(OC(C)=O)[C@H]2[C@H](OC(=O)c3ccccc3)[C@]3(O)C[C@H](OC(=O)[C@H](O)[C@@H](NC(=O)c4ccccc4)c4ccccc4)C(C)=C([C@@H](OC(=O)N(C)C)C(=O)[C@]12C)C3(C)C` [PCMI-23]: the Papp A→B in data set [1] (Sample-01, Caco-2, Sample-01) is 32.1 nm/s; in data set [1] (Sample-02, Caco-2, Sample-02), 26.8 nm/s. In addition, the recovery in data set [1] (setting [18]) turned out to be 87.1%; in data set [1] (Sample-01, Caco-2, Sample-01), 100%; in data set [1] (Sample-02, Caco-2, Sample-02), 74%. In addition, the inhibition at 1 µM worked out at 87.7% in data set [2]; 80.8% in [3]; 87.9% in [4]; 93.8% in data set [5]; 84.8% in [6]; 78.3% in [7]. The inhibition at 1 µM in data set [8] is 94.8%; in data set [9], 81.8%; in data set [10], 84.8%; in [11], 93.5%; in [12] it was 77.8%; in data set [13], 97.2%. For the same molecule, the inhibition at 1 µM in data set [14] stood at 99.8%; in data set [15], 94.5%; in [16], 83.3%; in data set [17] it was 96.3%.

As to `CO[C@H]1C[C@H]2OC[C@@]2(OC(C)=O)[C@H]2[C@H](OC(=O)c3ccccc3)[C@]3(O)C[C@H](OC(=O)[C@H](O)[C@@H](NC(=O)OC(C)(C)C)c4ccccn4)C(C)=C([C@@H](OC(=O)N(C)C)C(=O)[C@]12C)C3(C)C` [PCMI-24], the Papp A→B came out at 29.3 nm/s in [1] (Sample-01, Caco-2, Sample-01) and 31 nm/s in data set [1] (Sample-02, Caco-2, Sample-02). Besides, the recovery in [1] (setting [18]) is 100%; in data set [1] (Sample-01, Caco-2, Sample-01), 106%; in data set [1] (Sample-02, Caco-2, Sample-02) it was 94.8%. In addition, the inhibition at 1 µM in [2] is 86.8%; in data set [3], 78.9%; in [4], 88.1%; in data set [5], 92.2%; in data set [6], 84.7%; in data set [7] it was 81.1%. The inhibition at 1 µM in [8] is 95.5%; in [9], 81.1%; in [10] it was 76.3%; in data set [11] it was 82.3%; in data set [12] it was 73.8%; in [13], 98.1%. Also, the inhibition at 1 µM in [14] came to 100%; in data set [15] it was 93.5%; in data set [16], 83.6%; in [17], 94%.

On to `COC(=O)O[C@H]1C(=O)[C@]2(C)[C@@H](OC)C[C@H]3OC[C@@]3(OC(C)=O)[C@H]2[C@H](OC(=O)c2ccccc2)[C@]2(O)C[C@H](OC(=O)[C@H](O)[C@@H](NC(=O)c3ccccc3)c3ccccc3)C(C)=C1C2(C)C` [PCMI-27], for which the Papp A→B was 44.4 nm/s in data set [1] (Sample-01, Caco-2, Sample-01) and 43.1 nm/s in data set [1] (Sample-02, Caco-2, Sample-02). In addition, the recovery in data set [1] (setting [18]) amounted to 95.6%; in data set [1] (Sample-01, Caco-2, Sample-01), 99.3%; in data set [1] (Sample-02, Caco-2, Sample-02), 91.9%. Further, the inhibition at 1 µM in [2] is 103%; in [3] it was 79.2%; in data set [4], 87.3%; in data set [5] it was 94.5%; in data set [6], 83.3%; in data set [7], 78.3%. Moreover, the inhibition at 1 µM is 94.1% in data set [8]; 82.6% in [9]; 83.3% in data set [10]; 95.3% in [11]; 74.8% in [12]; 97.4% in data set [13]. Also, the inhibition at 1 µM in data set [14] is 99.5%; in [15], 94.1%; in data set [16] it was 80.4%; in data set [17] it was 96.3%.

On to `COC(=O)O[C@H]1C(=O)[C@]2(C)[C@@H](OC)C[C@H]3OC[C@@]3(OC(C)=O)[C@H]2[C@H](OC(=O)c2ccccc2)[C@]2(O)C[C@H](OC(=O)[C@H](O)[C@@H](NC(=O)N(C)C)c3ccccc3)C(C)=C1C2(C)C` [PCMI-29], for which the apparent permeability from apical to basolateral (Papp A→B) stood at 84.3 nm/s in data set [1] (setting [18]); 95.3 nm/s in [1] (Sample-01, Caco-2, Sample-01); 73.3 nm/s in [1] (Sample-02, Caco-2, Sample-02). The recovery in data set [1] (setting [18]) stood at 99.4%; in [1] (Sample-01, Caco-2, Sample-01), 102%; in data set [1] (Sample-02, Caco-2, Sample-02), 97%. In addition, the inhibition at 1 µM came to 92.8% in [2]; 80.6% in [3]; 81.7% in data set [4]; 90.8% in data set [5]; 86.7% in [6]; 68.7% in [7]. The inhibition at 1 µM in data set [8] worked out at 92.5%; in data set [9], 84.3%; in data set [10], 75.7%; in data set [11], 91.3%; in data set [12], 78.1%; in data set [13], 96.8%. The inhibition at 1 µM in data set [14] turned out to be 97.3%; in data set [15] it was 90.8%; in data set [16], 85.2%; in [17] it was 97.7%.

Regarding `CCSC(=O)O[C@H]1C(=O)[C@]2(C)[C@@H](OC)C[C@H]3OC[C@@]3(OC(C)=O)[C@H]2[C@H](OC(=O)c2ccccc2)[C@]2(O)C[C@H](OC(=O)[C@H](O)[C@@H](NC(=O)OC(C)(C)C)c3ccccc3)C(C)=C1C2(C)C` [PCMI-30], the Papp A→B in data set [1] (setting [18]) is 46.8 nm/s; in data set [1] (Sample-01, Caco-2, Sample-01), 57.8 nm/s; in data set [1] (Sample-02, Caco-2, Sample-02) it was 35.9 nm/s. In addition, the recovery in data set [1] (setting [18]) came to 76.5%; in data set [1] (Sample-01, Caco-2, Sample-01) it was 70.4%; in data set [1] (Sample-02, Caco-2, Sample-02), 82.6%. The inhibition at 1 µM in [2] worked out at 96.9%; in [3], 81.7%; in data set [4], 87.8%; in data set [5], 92.6%; in data set [6], 90.3%; in data set [7], 65.5%. For the same molecule, the inhibition at 1 µM in [8] turned out to be 95.6%; in data set [9], 86.2%; in [10], 81.3%; in data set [11], 95.8%; in data set [12], 75.8%; in [13] it was 98.5%. Also, the inhibition at 1 µM turned out to be 101% in data set [14], 94.9% in [15], 85.8% in data set [16] and 95% in [17].

With `COC(=O)O[C@H]1C[C@H]2OC[C@@]2(OC(C)=O)[C@H]2[C@H](OC(=O)c3ccccc3)[C@]3(O)C[C@H](OC(=O)[C@H](O)[C@@H](NC(=O)c4ccccc4)c4ccccc4)C(C)=C([C@@H](OC)C(=O)[C@]12C)C3(C)C` [PCMI-37], the Papp A→B is 32.3 nm/s in data set [1] (Sample-01, Caco-2, Sample-01) and 34.1 nm/s in [1] (Sample-02, Caco-2, Sample-02). In addition, the recovery came out at 80.6% in data set [1] (setting [18]); 81.2% in data set [1] (Sample-01, Caco-2, Sample-01); 80% in [1] (Sample-02, Caco-2, Sample-02). The inhibition at 1 µM in data set [2] worked out at 97.4%; in data set [3] it was 85.3%; in data set [4] it was 89.7%; in [5], 94.5%; in [6], 88.5%; in data set [7] it was 67.4%. Further, the inhibition at 1 µM in data set [8] was 96.4%; in [9] it was 85.5%; in data set [10] it was 86.1%; in data set [11], 103%; in data set [12] it was 80%; in data set [13] it was 97%. Further, the inhibition at 1 µM in data set [14] is 102%; in data set [15] it was 95.7%; in data set [16] it was 89.5%; in data set [17] it was 98.3%.

Take `COC(=O)O[C@H]1C[C@H]2OC[C@@]2(OC(C)=O)[C@H]2[C@H](OC(=O)c3ccccc3)[C@]3(O)C[C@H](OC(=O)[C@H](O)[C@@H](NC(=O)OC(C)(C)C)c4ccccn4)C(C)=C([C@@H](OC)C(=O)[C@]12C)C3(C)C` [PCMI-38]: the Papp A→B came to 47.1 nm/s in [1] (Sample-01, Caco-2, Sample-01) and 43.5 nm/s in [1] (Sample-02, Caco-2, Sample-02). In addition, the recovery in data set [1] (setting [18]) stood at 121%; in data set [1] (Sample-01, Caco-2, Sample-01), 122%; in [1] (Sample-02, Caco-2, Sample-02), 120%. Further, the inhibition at 1 µM in [2] came out at 88.3%; in [3], 83.3%; in data set [4], 89.8%; in [5], 94.7%; in data set [6], 89.2%; in data set [7], 64%. In addition, the inhibition at 1 µM in data set [8] amounted to 96.5%; in [9], 82.4%; in [10], 85.9%; in [11], 106%; in [12] it was 80.3%; in data set [13], 97.4%. The inhibition at 1 µM came out at 102% in [14], 95.7% in data set [15], 88.7% in data set [16] and 96.6% in data set [17].
